Measured values published in the supplement of paper PMC10307832.

What was measured:
Assay in all cases: relative viability (nuclei count vs DMSO), 5 days (fraction); higher = more cells survive
[1] = compound: C#Cc1cccc(Nc2ncnc3cc(OCCOC)c(OCCOC)cc23)c1 [Erlotinib] + Nc1ncn([C@H]2C[C@H](O)[C@@H](CO)O2)c(=O)n1 [Decitabine] (partner 2 µM)
Outline: (§1)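 Lung cancer cell lines were pin-tool dosed in 1536-well plates on the day after seeding, with either a lone drug or a fixed anchor-drug dose plus five library-drug doses (not always all listed) in √10 steps. Nuclei were counted on 4× images after 5 days. Relative viability is the ratio of treated-well to vehicle-well nuclei counts, with each value a median of duplicate plates.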

[2] = compound: O=C(Nc1c[nH]nc1-c1nc2ccc(CN3CCOCC3)cc2[nH]1)NC1CC1 [AT9283] + CC1(C)CCC(c2ccc(Cl)cc2)=C(CN2CCN(c3ccc(C(=O)NS(=O)(=O)c4ccc(N[C@H](CCN5CCOCC5)CSc5ccccc5)c(S(=O)(=O)C(F)(F)F)c4)cc3)CC2)C1 [Navitoclax] (partner 0.5 µM)
Outline: as §1

[3] = compound: O=C(Nc1c[nH]nc1-c1nc2ccc(CN3CCOCC3)cc2[nH]1)NC1CC1 [AT9283] + CS(=O)(=O)N1CCN(Cc2cc3nc(-c4cccc5[nH]ncc45)nc(N4CCOCC4)c3s2)CC1 [Pictilisib] (partner 1 µM)
Outline: as §1

[4] = compound: O=C(Nc1c[nH]nc1-c1nc2ccc(CN3CCOCC3)cc2[nH]1)NC1CC1 [AT9283] + NC(=O)Nc1cc(-c2cccc(F)c2)sc1C(=O)N[C@H]1CCCNC1 [AZD7762] (partner 0.2 µM)
Outline: as §1

[5] = compound: O=C(Nc1c[nH]nc1-c1nc2ccc(CN3CCOCC3)cc2[nH]1)NC1CC1 [AT9283] + O=C(CCCCCCC(=O)Nc1ccccc1)NO [Vorinostat] (partner 1 µM)
Outline: as §1

Row | Cell Line | relative viability ([1]; first compound 0.02 µM) | relative viability ([1]; first compound 0.2 µM) | relative viability ([1]; first compound 0.6325 µM) | relative viability ([1]; first compound 2 µM) | relative viability ([2]; first compound 0.003 µM) | relative viability ([2]; first compound 0.03 µM) | relative viability ([2]; first compound 0.09487 µM) | relative viability ([2]; first compound 0.3 µM) | relative viability ([3]; first compound 0.003 µM) | relative viability ([3]; first compound 0.03 µM) | relative viability ([3]; first compound 0.09487 µM) | relative viability ([3]; first compound 0.3 µM) | relative viability ([4]; first compound 0.003 µM) | relative viability ([4]; first compound 0.03 µM) | relative viability ([4]; first compound 0.09487 µM) | relative viability ([4]; first compound 0.3 µM) | relative viability ([5]; first compound 0.003 µM) | relative viability ([5]; first compound 0.03 µM) | relative viability ([5]; first compound 0.09487 µM) | relative viability ([5]; first compound 0.3 µM)
1 | NCI-H647 | 0.422 | 0.392 | 0.442 | 0.456 | 1.03 | 0.542 | 0.125 | 0.0857 | 0.43 | 0.159 | 0.0749 | 0.085 | 0.524 | 0.13 | 0.0611 | 0.0591 | 0.466 | 0.323 | 0.126 | 0.12
2 | NCI-H1651 | 0.623 | 0.438 | 0.644 | 0.524 | 1.09 | 0.956 | 0.489 | 0.231 | 0.59 | 0.572 | 0.24 | 0.255 | 0.43 | 0.441 | 0.403 | 0.213 | 0.449 | 0.39 | 0.393 | 0.218
3 | NCI-H1993 | 0.602 | 0.483 | 0.553 | 0.531 | 0.872 | 0.905 | 0.586 | 0.466 | 0.841 | 0.748 | 0.934 | 0.661 | 0.822 | 0.745 | 0.469 | 0.326 | 0.806 | 0.435 | 0.375 | 0.363
4 | HCC-827 | 0.21 | 0.215 | 0.111 | 0.169 | 0.995 | 0.879 | 0.449 | 0.326 | 0.822 | 0.775 | 0.457 | 0.504 | 0.234 | 0.169 | 0.145 | 0.153 | 0.612 | 0.36 | 0.363 | 0.248
5 | NCI-H1793 | 0.492 | 0.443 | 0.328 | 0.343 | 0.533 | 0.429 | 0.231 | 0.164 | 0.317 | 0.331 | 0.183 | 0.196 | 0.564 | 0.495 | 0.233 | 0.185 | 0.709 | 0.349 | 0.278 | 0.281
6 | NCI-H1944 | 0.43 | 0.382 | 0.37 | 0.372 | 1.03 | 0.865 | 0.652 | 0.235 | 0.327 | 0.307 | 0.221 | 0.224 | 0.594 | 0.246 | 0.184 | 0.125 | 0.532 | 0.274 | 0.214 | 0.205
7 | BEN | 0.711 | 0.72 | 0.841 | 0.66 | 0.0788 | 0.0854 | 0.0605 | 0.0596 | 0.501 | 0.555 | 0.188 | 0.224 | 0.595 | 0.62 | 0.327 | 0.321 | 0.515 | 0.49 | 0.33 | 0.324
8 | H3255 |  | 0.433 | 0.244 | 0.168 | 0.513 | 0.499 | 0.216 | 0.105 | 0.448 | 0.461 | 0.213 | 0.148 | 0.832 | 0.746 | 0.548 | 0.211 | 0.818 | 0.907 | 0.733 | 0.298
